Bounds are passed on as bounds.

Type in all cases: cell-based, HIV-1
Assay [1] deals with NL4(G48V). The assay can be described thus: Viral isolate resistance assay per Markowitz et al., NL4(G48V). The conditions noted are these: Human immunodeficiency virus 1, Table 7. The text has this: (§1) RF represents the HIV-1 strain HIV-LRF and RFR represents a mixture of resistant strains obtained by selection of RF against the compound of Example 1. […] RFR2 represents a mixture of resistant strains obtained by cloning RFR by three rounds of growth at limiting dilution. […] RFRR represents a mixture of resistant strains obtained by selection of RF against the compounds of Examples 1 and 2 and then cloning by three rounds of growth at limiting dilution. […] SF162 represents the HIV-1 strain SF-162 and SF162R represents a mixture of resistant strains obtained by selection of SF162 against the compound of Example 1. […] 89-959 represents the HIV-1 strain 89-959 and 89-959R represents a mixture of resistant strains obtained by selection of 89-959 against the compound of Example 2. […] NL4 represents the HIV-1 strain HIV-1NL4-3. NL4(G48V) represents a strain having a synthetically generated site-directed mutation in the protease from glycine to valine at amino acid position number 48. NL4(I84V) represents a strain having a synthetically generated site-directed mutation in the protease from isoleucine to valine at amino acid position number 84. NL4(R8Q,M46I) represents a strain having synthetically generated site-directed mutations in the protease from arginine to glutamine at amino acid position number 8 and methionine to isoleucine at amino acid position number 46.

Assay [2] relates to NL4(R8Q,M46I). The assay can be described thus: Viral isolate resistance assay per Markowitz et al., NL4(R8Q,M46I). As to conditions: Human immunodeficiency virus 1, read-out: Virus Isolate (EC50 nM) NL4(R8O, M46I). The text has this: (§2) RF represents the HIV-1 strain HIV-LRF and RFR represents a mixture of resistant strains obtained by selection of RF against the compound of Example 1. RFR comprises a mixture of viral strains having protease genotypes of G48V (14/40 clones); G48V, V82A (18/40 clones); G48V, L90S (2/40 clones); G48V, 154T, V82A (1/40 clones); G48M (1/40 clones); G48V, Q61H (1/40 clones); V13I, G48V (1/40 clones); G48V, F53L, V82A (1/40 clones); and G48V, V82A, C95Y (1/40 clones). RFR2 represents a mixture of resistant strains obtained by cloning RFR by three rounds of growth at limiting dilution. RFR2 comprises a mixture of viral strains having protease genotypes of G48V, V82A (13/15 clones); G17E, G48V, V82A (1/15 clones); and G48V, V82A, N37D, N88D (1/15 clones). RFRR represents a mixture of resistant strains obtained by selection of RF against the compounds of Examples 1 and 2 and then cloning by three rounds of growth at limiting dilution. RFRR comprises a mixture of viral strains having protease genotypes of G48V, 154T, L63P, V82A (7/9 clones); G48V, 154T, L63P, V82A, N88S (1/9 clones); and G48V, 154T, L63P, G73M, V82A (1/9 clones). SF162 represents the HIV-1 strain SF-162 and SF162R represents a mixture of resistant strains obtained by selection of SF162 against the compound of Example 1. SF162R comprises a mixture of viral strains having protease genotypes of M461, F53L, L63P, A71V, N88D (2/3 clones); and M46I, F53L, L63P, A71V, N88D, Q92R (1/3 clones). 89-959 represents the HIV-1 strain 89-959 and 89-959R represents a mixture of resistant strains obtained by selection of 89-959 against the compound of Example 2. 89-959R comprises a mixture of viral strains having protease genotypes of N88S (4/5 clones); and D25N, T26A, D30N, D37N, R41K, G73D, R87K, N88S (1/4 clones). NL4 represents the HIV-1 strain HIV-1NL4-3. NL4(G48V) represents a strain having a synthetically generated site-directed mutation in the protease from glycine to valine at amino acid position number 48. […]

The test system of assay [3] is NL4(538/P7-AG). The assay can be described thus: Viral isolate resistance assay per Markowitz et al., NL4(538/P7-AG). The conditions noted are these: Human immunodeficiency virus 1; Table 10; NL4(P22-538) selected against Example 12, 7 passages.
Source text: as §2, with “48. NL4(I84V) represents a strain having a synthetically generated site-directed mutation in the protease from isoleucine to valine at amino acid position number 84. NL4(R8Q,M46I) represents a strain having synthetically generated site-directed mutations in the protease from arginine to glutamine at amino acid position number 8 and methionine to isoleucine at amino acid position number 46. NL4(P22-538) represents a mixture of resistant strains obtained by selection of HIV-1NL4-3 against the compound of Example 10 after 22 passages comprising protease genotypes M46I, L63P, A71V, V82F, I84V (4/10); M46I, L63P, V82F, I84V (3/10); and M46I, A71V, V82F, I84V (3/10). NL4(P37-538) represents resistant strains obtained by selection of HIV-1NL4-3 against the compound of Example 10 after 37 passages comprising protease genotype M46I, L63P, A71V, 184A. NL4(538/524) represents resistant strains obtained by selection of NL4(P22-538) against the compound of Example 5 after 24 passages comprising protease genotype M46I, L63P, A71V, 184A. NL4(538/P7-AG) represents a mixture of resistant strains obtained by selection of NL4(P22-538) against the compound of Example 12 after 7 passages comprising protease genotypes M46I, L63P, A71V, 184A; and V321, V82I. NL4(538/P24-AG) represents resistant strains obtained by selection of NL4(P22-538) against the compound of Example 12 after 24 passages comprising protease genotype M46I, L63P, A71V, 184A.” for “48.”

Assay [4] relates to NL4(P34-003). The assay can be described thus: Viral isolate resistance assay per Markowitz et al., NL4(P34-003). As to conditions: Human immunodeficiency virus 1; Table 11; selected against Example 9, 34 passages.
Source text: as §2

For assay [5], the system named is NL4(P22-538). The assay can be described thus: Viral isolate resistance assay per Markowitz et al., NL4(P22-538). The conditions noted are these: Human immunodeficiency virus 1; Table 9; selected against Example 10, 22 passages; read-out: Virus Isolate (EC50 nM) NL4(P22-538).
Source text: as §2, with “48. NL4(I84V) represents a strain having a synthetically generated site-directed mutation in the protease from isoleucine to valine at amino acid position number 84. NL4(R8Q,M46I) represents a strain having synthetically generated site-directed mutations in the protease from arginine to glutamine at amino acid position number 8 and methionine to isoleucine at amino acid position number 46. NL4(P22-538) represents a mixture of resistant strains obtained by selection of HIV-1NL4-3 against the compound of Example 10 after 22 passages comprising protease genotypes M46I, L63P, A71V, V82F, I84V (4/10); M46I, L63P, V82F, I84V (3/10); and M46I, A71V, V82F, I84V (3/10). NL4(P37-538) represents resistant strains obtained by selection of HIV-1NL4-3 against the compound of Example 10 after 37 passages comprising protease genotype M46I, L63P, A71V, 184A. NL4(538/524) represents resistant strains obtained by selection of NL4(P22-538) against the compound of Example 5 after 24 passages comprising protease genotype M46I, L63P, A71V, 184A. NL4(538/P7-AG) represents a mixture of resistant strains obtained by selection of NL4(P22-538) against the compound of Example 12 after 7 passages comprising protease genotypes M46I, L63P, A71V, 184A; and V321, V82I. NL4(538/P24-AG) represents resistant strains obtained by selection of NL4(P22-538) against the compound of Example 12 after 24 passages comprising protease genotype M46I, L63P, A71V, 184A.” for “48.”

For assay [6], the system named is NL4(I84V). The assay can be described thus: Viral isolate resistance assay per Markowitz et al., NL4(I84V). As to conditions: Human immunodeficiency virus 1, Table 7.
Source text: as §1

For the compound `Nc1cccc(CN2C(=O)N(Cc3cccc(N)c3)[C@H](Cc3ccccc3)[C@H](O)[C@@H](O)[C@H]2Cc2ccccc2)c1` [Example 13, [4R-(4α,5α,6β,7β)]-1,3-bis[(3-aminophenyl)methyl]hexahydro-5,6-dihydroxy-4,7-bis(phenylmethyl)-2H-1,3-diazepin-2-one], the EC90 was 1000 nM in assay [1] and 6250 nM in assay [6]. Besides, the EC50 is 750 nM in assay [2], greater than 31200 nM in assay [3], 1250 nM in assay [4] and 5000 nM in assay [5].

In general, EC90 refers to the concentration at which the effect reaches the 90% level. A lower EC90 goes with an effect from little substance. Usually EC50 stands for the concentration at which the effect is half-maximal.

The values are drawn from US20030207813A1, “Retroviral protease inhibitor combinations” (priority 1995, published 2003).
